Values joined by “and” are separate entries in the source; they are usually repeats but may differ in a detail not shown here. Equal values may be shown once. Inconclusive results and toxic doses are left out.
Tested on: L1210 leukemia ip in BDF1 mice, survival T/C
Test: NCI In Vivo Anticancer Drug Screen. Data for tumor model L1210 Leukemia (intraperitoneal) in B6D2F1 (BDF1) mice
Settings: endpoint: mean survival time, higher = longer survival
Method in brief: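 In this screen, tumor-bearing mice given compound are compared to those given vehicle, and their survival values are reported as a treated-to-control quotient.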

[1] = dose: 100.0 mg/kg/injection, schedule: Q04DX003 (ip), vehicle: Klucel (hydroxypropylcellulose) (HPC)
[2] = dose: 200.0 mg/kg/injection, schedule: Q04DX003 (ip), vehicle: Klucel (hydroxypropylcellulose) (HPC)
[3] = dose: 100.0 mg/kg/injection, schedule: Q04DX003 (ip), vehicle: saline with Tween-80
[4] = dose: 200.0 mg/kg/injection, schedule: Q04DX003 (ip), vehicle: saline with Tween-80
[5] = dose: 400.0 mg/kg/injection, schedule: Q04DX003 (ip), vehicle: saline with Tween-80

For `CSc1nsc(N)n1`, the T/C (dose: 75.0 mg/kg/injection, schedule: Q01DX001 (ip), vehicle: other) was 102 % of control, the T/C [1] was 100 % of control and the T/C (dose: 150.0 mg/kg/injection, schedule: Q01DX001 (ip), vehicle: other) was 100 % of control. For the same compound, the T/C [2] was 100 % of control, the T/C (dose: 300.0 mg/kg/injection, schedule: Q01DX001 (ip), vehicle: other) was 103 % of control and the T/C (dose: 400.0 mg/kg/injection, schedule: Q04DX003 (ip), vehicle: Klucel (hydroxypropylcellulose) (HPC)) was 107 % of control.
With `CC(=O)Nc1ccc(NC(=O)Nc2cc([N+](=O)[O-])ccc2C)cc1` the T/C (dose: 100.0 mg/kg/injection, schedule: Q01DX009 (ip), vehicle: Klucel (hydroxypropylcellulose) (HPC)) was 95 % of control, the T/C (dose: 200.0 mg/kg/injection, schedule: Q01DX009 (ip), vehicle: Klucel (hydroxypropylcellulose) (HPC)) was 93 % of control and the T/C (dose: 400.0 mg/kg/injection, schedule: Q01DX009 (ip), vehicle: Klucel (hydroxypropylcellulose) (HPC)) was 96 % of control.
`Cc1cc(C)cc(C(C)(C)C)c1` was tested, and the T/C [3] was 92 % of control, the T/C [4] was 92 % of control and the T/C [5] was 95 % of control.
With `CCCCCCC(=C/c1ccccc1)/C=N/NC(=O)c1ccc[n+](C)c1` the T/C (dose: 25.0 mg/kg/injection, schedule: Q04DX003 (ip), vehicle: saline with Tween-80) was 93 % of control, the T/C (dose: 50.0 mg/kg/injection, schedule: Q04DX003 (ip), vehicle: saline with Tween-80) was 116 % of control and the T/C [3] was 104 % of control.
`CCC(O)(CC)C(=O)Nc1ccccc1` was tested, and the T/C (dose: 50.0 mg/kg/injection, schedule: Q01DX001 (ip), vehicle: saline) was 98 % of control, the T/C (dose: 100.0 mg/kg/injection, schedule: Q01DX001 (ip), vehicle: saline) was 104 % of control and the T/C (dose: 200.0 mg/kg/injection, schedule: Q01DX001 (ip), vehicle: saline) was 96 % of control. For the same compound, the T/C (dose: 400.0 mg/kg/injection, schedule: Q01DX001 (ip), vehicle: saline) was 102 % of control.
In the case of `CCCCC(=O)NCC(=O)N1CCC(C(=O)NCCCCC(=O)OC)C1` (stereo not given), the T/C (dose: 100.0 mg/kg/injection, schedule: Q04DX002 (ip), vehicle: saline) is reported as 96 % of control, the T/C (dose: 200.0 mg/kg/injection, schedule: Q04DX002 (ip), vehicle: saline) is reported as 115 % of control and the T/C (dose: 400.0 mg/kg/injection, schedule: Q04DX002 (ip), vehicle: saline) is reported as 104 % of control.
In the case of `C1=CC2CC1C1CSCC21` (stereo not given), the T/C (dose: 0.34 mg/kg/injection, schedule: Q01DX009 (ip), vehicle: saline) is reported as 102 % of control, the T/C (dose: 0.51 mg/kg/injection, schedule: Q01DX009 (ip), vehicle: saline) is reported as 107 % of control and the T/C (dose: 0.78 mg/kg/injection, schedule: Q01DX009 (ip), vehicle: saline) is reported as 98 % of control. For the same compound, the T/C (dose: 1.56 mg/kg/injection, schedule: Q04DX003 (ip), vehicle: saline) was 97 % of control and the T/C (dose: 3.12 mg/kg/injection, schedule: Q04DX003 (ip), vehicle: saline) was 94 % of control.
For `c1ccc(C2=Nc3ccccc3NC2c2ccccc2)cc1` (stereo not given), the T/C (dose: 50.0 mg/kg/injection, schedule: Q04DX003 (ip), vehicle: Klucel (hydroxypropylcellulose) (HPC)) was 100 % of control, the T/C [1] was 89 % of control and the T/C [2] was 98 % of control.
`CCCCCCC(=O)N(CCCCC)CCCCC` was tested, and the T/C (dose: 100.0 mg/kg/injection, schedule: Q01DX001 (ip), vehicle: carboxymethylcellulose (CMC)) was 98 % of control, the T/C (dose: 100.0 mg/kg/injection, schedule: Q01DX009 (ip), vehicle: carboxymethylcellulose (CMC)) was 96 % of control and 97 % of control and the T/C (dose: 100.0 mg/kg/injection, schedule: Q04DX002 (ip), vehicle: carboxymethylcellulose (CMC)) was 100 % of control and 102 % of control. The T/C (dose: 100.0 mg/kg/injection, schedule: Q04DX003 (ip), vehicle: carboxymethylcellulose (CMC)) was 93 % of control, the T/C (dose: 200.0 mg/kg/injection, schedule: Q01DX001 (ip), vehicle: carboxymethylcellulose (CMC)) was 94 % of control and the T/C (dose: 200.0 mg/kg/injection, schedule: Q01DX009 (ip), vehicle: carboxymethylcellulose (CMC)) was 96 % of control and 105 % of control. The T/C (dose: 200.0 mg/kg/injection, schedule: Q04DX002 (ip), vehicle: carboxymethylcellulose (CMC)) was 98 % of control and 100 % of control, the T/C (dose: 200.0 mg/kg/injection, schedule: Q04DX003 (ip), vehicle: carboxymethylcellulose (CMC)) was 95 % of control and the T/C (dose: 400.0 mg/kg/injection, schedule: Q01DX001 (ip), vehicle: carboxymethylcellulose (CMC)) was 104 % of control. The T/C (dose: 400.0 mg/kg/injection, schedule: Q04DX002 (ip), vehicle: carboxymethylcellulose (CMC)) was 98 % of control and 103 % of control and the T/C (dose: 400.0 mg/kg/injection, schedule: Q04DX003 (ip), vehicle: carboxymethylcellulose (CMC)) was 97 % of control.
`NS(=O)(=O)c1ccc(NC2OCC(O)C(O)C2O)cc1` (stereo not given) was tested, and the T/C [3] was 98 % of control, the T/C [4] was 100 % of control and the T/C [5] was 102 % of control.
`COc1cc(C(=O)Nc2ccc(C3=NCCN3)cc2)ccc1C(=O)Nc1ccc(C2=NCCN2)cc1` was tested, and the T/C (dose: 15.0 mg/kg/injection, schedule: Q01DX Z (ip), vehicle: saline) was 159 % of control and 172 % of control, the T/C (dose: 30.0 mg/kg/injection, schedule: Q01DX Z (ip), vehicle: saline) was 212 % of control and the T/C (dose: 60.0 mg/kg/injection, schedule: Q01DX010 (oral), vehicle: saline) was 101 % of control. The T/C (dose: 60.0 mg/kg/injection, schedule: Q01DX Z (ip), vehicle: saline) was 188 % of control, the T/C (dose: 120.0 mg/kg/injection, schedule: Q01DX010 (oral), vehicle: saline) was 104 % of control and the T/C (dose: 240.0 mg/kg/injection, schedule: Q01DX010 (oral), vehicle: saline) was 98 % of control.

— PubChem BioAssay AID248 (DTP/NCI, 2004)
